Data taken from patent publication US20150017638A1, “METHODS FOR ASSESSING RISK FOR CANCER USING BIOMARKERS” (THE TRUSTEES OF THE UNIVERSITY OF PENNSYLVANIA, priority 2012, published 2015).

Experiments:
[1] = test system: Primary cell lines derived from PanIN mice (sorted YFP+ cells); test: In vitro exposure of PanIN-derived primary cell lines to cerulein, dexamethasone, TGF-b; type: cell-based, mouse; details: 48 hr; for cell morphology: dexamethasone 1 mM, vs DMSO vehicle
Description: Cells destined for transcriptional analysis were sorted into either RLT buffer (QIAGEN) or Trizol LS Reagent (Invitrogen). RNA was extracted from samples >1,000 cells using the RNEasy kit (QIAGEN). RNA from samples with fewer cells, including all sorted blood cell samples, was isolated using the PicoPure Extraction kit as directed (Arcturus). qPCR was performed as previously described (Zong et al., 2009), and primary sequences used are listed in Table 1, below. Relative expression was determined after adjusting for GAPDH. Genomic DNA was extracted from sorted CPCs pooled from three tumor-bearing mice using phenol or DNeasy kit (QIAGEN).
Primary cell lines were derived from PanIN mice after sorting pancreas single-cell suspensions for YFP^+ cells. Sorted YFP^+ cells were then placed in six-well plates in pancreatic ductal cell media (Schreiber et al., 2004) and passaged at 80% confluence, Cells were transferred to multiple 6-well plates (250,000 cells per well) in pancreatic ductal cell media containing DMSO vehicle, cerulein (100 nM, Sigma), dexamethasone (Dex, 1 mM, Sigma), TGF-b (5 ng/ml, Peprotech), or Dex (1 mM) and TGF-b (5 ng/ml). Morphology was photodocumented at 6 hr, 24 hr, and 48 hr after treatment using an inverted microscope. After 48 hr of exposure, cells were counted and RNA isolated, cDNA synthesized, and qPCR performed as described above.

murine PanIN disease = details: Guerra et al., 2011; cited from earlier work
[2] = test system: CY, KCY, PanIN PKCY, and PDAC PKCY mice; test: Experimental acute pancreatitis elicited with cerulein in lineage-labeled mice; type: in vivo, mouse
Description: The behavior of mutant strains bearing various allele combinations of Pdx1-Cre KrasG12D, p16/p19fl, and p53fl has been described previously (Aguirre et al., 2003; Bardeesy et al., 2006; Hingorani et al., 2003; and U.S. patent application Ser. No. 11/503,499, the contents of which are expressly incorporated herein by reference). To perform lineage tracing, a RosaYFP reporter allele was introduced into these mutant backgrounds to generate a panel of compound mutant strains: Pdx1-Cre; RosaYFP (“CY”), Pdx 1-Cre; KrasG12D; RosaYFP (“KCY”), Pdx1-Cre; KrasG12D; p16/p19fl/+; RosaYFP (“IKCY”), and Pdx1-Cre; KrasG12D; p53fl/+; RosaYFP (“PKCY”). All experiments involving the KCY model employed mice between 8 and 10 weeks of age. For studies involving mice harboring only PaniN lesions by histologic analysis (“PanIN” mice), PKCY animals were sacrificed at 8-10 weeks of age based on prior observations regarding tumor progression (Bardeesy et al., 2006); no PKCY mice (out of 18 examined) had evidence of carcinoma at this time point. […] More than 90% of IKCY and PKCY mice were 34-38 weeks of age or 16-20 weeks of age, respectively, at the time of sacrifice.
Experimental pancreatitis was elicited with cerulein as described (Siveke et al., 2008), and specimens were obtained after 3 days of treatment. Three to four CY, KCY, PanIN PKCY, and PDAC PKCY were used for cerulein and vehicle (PBS) treated cohorts. Orthotopic transplantations were performed on NOD/SCID mice by injecting 1×10^5 sorted pancreas cells as previously described (Mohammad et al., 1998). PKCY PanIN mice aged 10 weeks were treated with seven daily injections of dexamethasone or vehicle (DMSO) as described (Stairs et al., 2011) and analyzed 24 hours later.
For experiments involving flow cytometry and sorting of pancreatic cells, at least 25% of the tissue was saved for histologic analysis and was processed and stained. To create a single cell suspension, pancreatic tissue was rinsed vigorously in cold DMEM/F12 three times before mincing with scissors (approximately 100 chops). The minced pieces were then incubated in preheated collagenase with protease inhibitors (2 mg/ml; Sigma) for 20 min at 37° C. Vigorous vortexing was performed every 5 min during this incubation. The dissolved pieces were then poured over a […] cell strainer. The flow through was resuspended in cold 2% FCS/DMEM/F12, centrifuged, washed once, and kept on ice in the dark. Enriched blood samples or dissociated pancreatic specimens were stained for various markers prior to flow cytometric analysis (FACS Calibur, BD, or Accuri C6, Accuri Cytometers) or flow sorting (FACSVantage with FACSDiva option, BD). For analysis and sorting based on endogenous YFP and surface markers, primary antibodies (1:100) and secondary antibodies (1:50) were incubated with cells in 10% FCS/DMEM/F12 for 20 min at 4° C. Primary PanIN cell lines from IKCY and PKCY mice were used as positive controls. Isotype controls were also run. For intracellular staining of CPCs and pancreas cells, cells were washed with 10% FCS/DMEM/F12 before washing in freshly prepared 13fixation/permeabilization solution (Fix/Perm; eBioscience) followed by incubation in Fix/Perm for 30 min in the dark at 4° C. Cells were washed twice with 13 permeabilization buffer (Perm; eBioscience) before incubation in Block-P solution (10% FCS in freshly prepared Perm). After 15 min at 4° C., primary antibodies were added and incubated for an additional 20 min on ice. […]

[3] = cerulein 100 nM, Dex 1 mM, triplicate

**Q.** With `C[C@@H]1C[C@H]2[C@@H]3CCC4=CC(=O)C=C[C@]4(C)[C@@]3(F)[C@@H](O)C[C@]2(C)[C@@]1(O)C(=O)CO` [dexamethasone] as the compound, how does the “expression of a panel of epithelial or mesenchymal markers (qPCR)” value [1, 3] read?
**A.** Its value is “no effect”.

**Q.** With `CC1=C(CC(=O)O)c2cc(F)ccc2/C1=C\c1ccc([S+](C)[O-])cc1` (stereo not shown) [sulindac] as the compound, how does the PanIN disease (murine PanIN disease) read?
**A.** The PanIN disease was “regression of murine PanIN disease”.

**Q.** What does the source list for TGF-b?
**A.** expression of epithelial markers (qPCR) ([1]; TGF-b 5 ng/ml, triplicate): significant downregulation of epithelial markers; expression of mesenchymal markers Zeb1 and N-cad (qPCR) ([1]; TGF-b 5 ng/ml, triplicate): increase in the expression of the mesenchymal markers Zeb1 and N-cad; cell morphology ([1]; cerulein 100 nM, TGF-b 5 ng/ml): acquisition of a fibroblast-like morphology

**Q.** With cerulein as the compound, how does the “expression of a panel of epithelial or mesenchymal markers (qPCR)” value [1, 3] read?
**A.** Its value is “no effect”.

**Q.** What about the proliferation [1, 3] of the same compound?
**A.** The proliferation was “no effect on proliferation”.

**Q.** And the cell morphology ([1]; cerulein 100 nM, TGF-b 5 ng/ml)?
**A.** The cell morphology was “identical morphology as vehicle-treated cells”.

**Q.** What about the “circulating pancreatic cell (CPC) number” value ([2]; 8-week-old KCY mice, 3 days of cerulein vs vehicle) of the same compound?
**A.** The value was “marked elevation in circulating cells”.

**Q.** What about the “pancreas histology (ADMI and PanIN formation)” value ([2]; KCY mice, 8-week-old, 3 days of cerulein treatment vs vehicle) of the same compound?
**A.** Its value is “formation of ADMIs and accelerated PanIN formation”.

**Q.** What about the “frequency of EMT in pancreas” value ([2]; PDAC mice, cerulein compared to vehicle) of the same compound?
**A.** The value was “little change in the frequency of EMT”.

**Q.** What about the “circulating pancreatic cell (CPC) number” value ([2]; across all groups (CY, KCY, PKCY PanIN, PDAC), p=0.014 by two-way ANOVA) of the same compound?
**A.** Its value is “significant increase in CPC number”.

**Q.** And the “EMT (YFP+Zeb1+ cells) in pancreas” value ([2]; control (CY) and KCY mice)?
**A.** The value was “emergence of YFP^+Zeb1^+ cells”.
